According to patent US20100003208A1, “Skin Care Products, As Well As Foods and Beverages Containing 6-O-PUFA Ascorbic Esters” (Suntory Holdings Limited, priority 2004, published 2010):

Columns and labels:
human skin strips = assay: Permeability of ascorbic acid to the tissue of human skin strips (modified Bronov diffusion cell); format: in vitro ADME; conditions: 100 mM (3.38% w/w; PBS(−)) on keratinized layer, re-dosed at 4 and 17 h, 24 hours; compared with unmodified vitamin C; FIG. 3
Procedure: A human skin section extracted from the right abdominal part of a volunteer with an informed consent was vertically split into small strips, which were set in a modified Bronov diffusion cell chamber. With the underside of the skin immersed in DMEM (2 mL) to supply nutrients, the keratinized layer was aerated with 5% CO2 to maintain the pH of the medium at 7.25. […] The total quantity of vitamin C (the sum of reduced and oxidized forms of vitamin C) and the quantity of reduced form of vitamin C in the epidermis and the dermis were measured; the total quantity of vitamin C was measured in the presence of 16 mM dithiothreitol as a reducing agent, whereas the quantity of reduced form of vitamin C was measured without adding any such reducing agent. The measured values were used to calculate the proportion of total vitamin C as occupied by reduced form of vitamin C. Similarly, 6-O-arachidonoyl ascorbate and 6-O-docosahexaenoyl ascorbate, as well as ascorbic acid (comparison) were evaluated and the results are also shown in FIG. 3.

[1] = tested on: human skin keratocytes HaCaT; assay: Protective effect on apoptosis of HaCaT keratocytes under UVA irradiation (WST-1 viability); format: cell-based; conditions: 200 μM added 2 hours before 32-48 mJ/cm^2 UVA; WST-1 24 hours after irradiation; FIG. 2
Procedure: Human skin keratocytes HaCaT (the cell line granted by courtesy of Dr. Fusenig at University of Heidelberg) were inoculated on a 24-well plate at a density of 10,000 cells/well in a 10% fetal bovine serum (FBS) containing Dulbecco modified Eagle medium (DMEM); 18 hours later, the medium was irradiated with 32-48 mJ/cm^2 of UVA. Two hours before the irradiation, 100-200 μM of 6-O-dihomo-γ-linolenoyl ascorbate had been added to the medium but it was removed just before the irradiation and the medium was rinsed. UVA irradiation was performed in PBS but in the absence of the drug; after the irradiation, culture was continued in the 10% FBS containing DMEM and 24 hours after the irradiation, the cell viability was evaluated by a mitochondrial dehydrogenase activity assay method using 2-(4-iodophenyl)-3-(4-nitrophenyl)-5-(2,4-disulfophenyl)-2H-tetrazolium monosodium salt (WST-1).

aldose reductase = aldose reductase (Homo sapiens, UniProt P15121); conditions: cited from earlier work
[2] = tested on: streptozotocin-induced diabetic model; conditions: in vivo; cited from earlier work

Structure (SMILES)	amount of vitamin C in the dermis (human skin strips)	viability of human skin keratocytes [1]	aldose reductase inhibitory action (aldose reductase)	efficacy in streptozotocin-induced diabetic model [2]
CCCCC/C=C\C/C=C\C/C=C\C/C=C\CCCC(=O)OC[C@H](O)[C@H]1OC(=O)C(O)=C1O [6-O-arachidonoyl ascorbate]	increased markedly	–	–	–
CCCCC/C=C\C/C=C\C/C=C\CCCCCCC(=O)OC[C@H](O)[C@H]1OC(=O)C(O)=C1O [6-O-dihomo-γ-linolenoyl ascorbate]	increased markedly	improved the viability	–	–
CCCCC/C=C\C/C=C\C/C=C\CCCCC(=O)OC[C@H](O)[C@H]1OC(=O)C(O)=C1O [6-O-γ-linolenoyl ascorbate]	–	–	aldose reductase inhibitory action	effective
